Like-named read-outs stand apart in the source and are kept apart here. Peptide text beside a SMILES is read from it. * marks the point of attachment. Cbz = O=C(OCc1ccccc1)*; CH2F = FC*
Experiments:
PKR−/− BMDMs = format: cell-based, mouse
Protocol: A. Bone marrow derived macrophages (BMDMs) from PKR+/+ and PKR−/− mice were left untreated or treated with LPS plus SB202190 or LT (2.5 μg/ml PA+500 ng/ml LF), 15-deoxy-12,14-prostaglandin J2 (5 μM), or doxorubicin (10 μg/ml), as indicated. After 16 hrs, the cells were stained with Hoechst 33258 (blue) or annexin V-Alexa568 (red). […] (FIG. 9a) B. Bone marrow derived macrophages (BMDMs) from PKR+/+ or PKR−/− mice were incubated with LPS for various time periods (in days) and analyzed by TUNEL staining to determine the extent of apoptosis. […] (FIG. 9b)

[1] = system: bone marrow derived macrophages (BMDMs); format: cell-based, mouse; settings: for apoptotic response of BMDMs: C57BL/6J BMDMs
[2] = system: J774A.1 macrophage-like cells; assay: Nucleosomal DNA ladder in J774A.1 cells incubated with LPS plus SB202190 and pan-caspase inhibitor; format: cell-based; settings: inhibitor 10, 100, 200 μM, 18 hrs
Protocol: A. J774A.1 macrophage-like cells were incubated with LPS plus SB202190 (10 μM) whereas NIH3T3 fibroblasts were incubated with mouse TNF-α (10 ng/ml) plus cycloheximide (25 μg/ml). At the indicated time points cell lysates were prepared and analyzed by immunoblotting with antibodies specific to caspase-8. (FIG. 8a) B. J774A.1 macrophage-like cells were incubated with LPS plus SB202190 (10 μm), whereas NIH3T3 fibroblasts were incubated with mouse TNF-α (10 ng/ml) plus cycloheximide (25 μg/ml). At the indicated time points cell lysates were prepared and analyzed by immunoblotting with antibodies specific to caspase-3. (FIG. 8b) C. J774A.1 macrophage-like cells were incubated with or without LPS in the absence or presence of SB202190. When indicated, increasing concentrations (10, 100, and 200 μM) of a pan-caspase inhibitor (ZVAD-FMK) were added. After 18 hrs, genomic DNA was isolated and analyzed by agarose gel electrophoresis and EtBr staining for appearance of nucleosomal ladders indicative of apoptosis. (FIG. 8c)

[3] = system: IKKβ-deficient macrophages; assay: TUNEL apoptosis of IKKβ-deficient macrophages treated with TLR agonists or TNF-α; format: cell-based, mouse; settings: without p38 inhibition, 12 hrs
Protocol: Bone marrow derived macrophages from Ikkβ F/F (IKKβ+/+) or MX1Cre-Ikkβ F/F (IKKβ−/−) mice were untreated or treated with LPS (100 ng/ml), LTA from B. subtilis (10 μg/ml), poly(IC) (10 μg/ml), SBLP (Pam3CSK4, 1 μg/ml), CpG-containing DNA (1 μM), and mouse TNF-α (10 ng/ml). After 12 hrs, apoptotic cell death was quantitated by TUNEL staining. Inset, macrophage lysates were analyzed by immunoblotting with antibodies specific to IKKβ and p38. (FIG. 2e)

PKR = target: T1, PKR (Mus musculus, UniProt Q03963); assay: PKR activation by autophosphorylation and eIF2α phosphorylation in macrophages; format: cell-based; settings: for PKR activation (autophosphorylation, eIF2α phosphorylation): wt macrophages
T1 construct: endogenous in cells; host or cells: wild-type mouse bone marrow derived macrophages (BMDMs)
T1 sequence (Q03963 1-515): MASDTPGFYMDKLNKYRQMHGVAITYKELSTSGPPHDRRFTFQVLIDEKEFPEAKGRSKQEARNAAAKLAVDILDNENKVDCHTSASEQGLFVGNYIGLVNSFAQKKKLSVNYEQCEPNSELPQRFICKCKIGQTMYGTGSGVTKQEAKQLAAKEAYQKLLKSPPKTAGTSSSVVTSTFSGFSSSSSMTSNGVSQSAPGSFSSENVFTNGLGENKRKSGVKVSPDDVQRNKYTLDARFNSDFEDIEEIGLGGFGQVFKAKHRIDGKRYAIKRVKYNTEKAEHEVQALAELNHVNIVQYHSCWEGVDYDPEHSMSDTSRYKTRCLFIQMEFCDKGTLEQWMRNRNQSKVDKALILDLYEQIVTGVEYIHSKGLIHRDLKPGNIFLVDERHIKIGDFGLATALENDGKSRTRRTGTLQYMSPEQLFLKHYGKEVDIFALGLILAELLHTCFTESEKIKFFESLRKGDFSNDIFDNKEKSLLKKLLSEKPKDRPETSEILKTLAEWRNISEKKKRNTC
Protocol: Whole cell extracts were prepared and PKR activity was measured by autophosphorylation (Gusella et al. J Immunol 154, 345-54, 1995) after immunoprecipitation with anti-PKR antibody (Santa Cruz).
Phosphorylation of eIF2α was detected by immunoblotting with antibody against phosphorylated eIF2α (Biosource, Camarillo, Calif.). The same blot was stripped and probed with antibody against total eIF2αIKK and MAPK activation were measured as described (Park et al. Science 297, 2048-51, 2002). Phosphorylation of STAT1 (Medzhitov et al. Nature 388, 394-7 (1997) was monitored by immunoblotting with anti-phospho-STAT1 antibody (Cell Signaling, Beverly, Mass.).
Bone marrow derived macrophages (BMDMs) (wt) were stimulated with LPS (100 ng/ml) or poly(IC) (10 μg/ml) or left unstimulated. At the indicated time points cells were lysed and PKR activation was monitored by autophosphorylation. Gel loading was controlled by immunoblotting for PKR. The same lysates were monitored for eIF-2α phosphorylation by immunoblotting with antibodies specific for phosphorylated eIF-2a (P-eIF-2α) and total eIF-2α (FIG. 3a)

A1/Bfl1 = assay: Immunoblotting of A1/Bfl1 and cIAP-1 after poly(IC) transfection and LPS; format: cell-based, mouse; settings: wt BMDMs, poly(IC) transfection followed by LPS
Protocol: PKR+/+ and PKR−/− BMDMs were transfected with or without poly(IC) using Lipofectamine (Diebold et al. Nature 424, 324-328, 2003). After 6 hrs, LPS was added and the levels of A1/Bfl1 and cIAP-1 were examined by immunoblotting. (FIG. 5b)

[4] = system: bone marrow derived macrophages (BMDMs); format: cell-based, mouse; settings: BMDMs preincubated with poly(IC) 6 hrs before infection
S. typhimurium = assay: Systemic S. typhimurium infection of mice pretreated with poly(IC); format: in vivo
Protocol: Mice (7-10 weeks old) were injected i.p. with either PBS or 200-300 μg poly(IC) in PBS. After 20 hrs, mice were injected i.p. with 10^6 S. typhiumurium 14028 in PBS. Mice that were still alive were sacrificed after 24 hrs and their spleens removed. For certain experiments, tissue was homogenized in PBS+0.1% Triton X-100. To determine bacterial counts, tissue homogenates were diluted in PBS and plated on LB agar and colonies were counted after overnight incubation at 37° C.
B. Mice (wt and PKR−/−) were Injected i.p. with PBS or 200-300 μg Poly(IC) in PBS
After 20 hrs the mice were injected i.p. with 10^6 S. typhimurium (14028) bacteria suspended in PBS. After 24 hrs, survival was monitored and mice that were still alive were sacrificed and the numbers of live bacteria within their spleens determined. * represents p=0.007. (FIG. 7b)
C. Mice were Treated as Above and Parts of their Spleens Analyzed for the Presence Of Apoptotic Cells by TUNEL Staining
Photograph was taken from the splenic red pulp where macrophages reside. (FIG. 7c)

[5] = with p38 inhibition (SB202190 10 μM), 18 hrs

For CCCCCC=CC=C1C(=O)C=C[C@@H]1CC=CCCCC(=O)O [15-deoxy-12,14-prostaglandin J2], the “apoptosis of PKR−/− BMDMs” value (PKR−/− BMDMs) was “still underwent apoptosis”.
With Oc1ccc(-c2nc(-c3ccncc3)c(-c3ccc(F)cc3)[nH]2)cc1 [SB202190] the “macrophage apoptosis induced by heat-inactivated B. anthracis” value ([1]; in the presence of SB202190 (10 μM), 18 hrs, TUNEL) was “extensive macrophage apoptosis”.
In the case of C[C@@H]1C[C@@H]([C@H](O)CC2CC(=O)NC(=O)C2)C(=O)[C@@H](C)C1 [cycloheximide], the “apoptosis on mere incubation” value ([1]; wt or PKR−/− BMDMs, cycloheximide 10 μg/ml) is reported as “triggered apoptosis”.
For COc1cccc2c1C(=O)c1c(O)c3c(c(O)c1C2=O)C[C@@](O)(C(=O)CO)C[C@@H]3O[C@H]1C[C@H](N)[C@H](O)[C@H](C)O1 [doxorubicin], the “apoptosis of PKR−/− BMDMs” value (PKR−/− BMDMs; PKR−/− BMDMs, 16 hrs, annexin V) was “still underwent apoptosis”.
COC(=O)C[C@H](NC(=O)[C@H](C)NC(=O)[C@@H](NC(=O)OCc1ccccc1)C(C)C)C(=O)CF [pan-caspase inhibitor, ZVAD-FMK] (Cbz-Val-Ala-Asp(OMe)-CH2F) was tested, and the “effect on LPS-induced macrophage apoptosis” value [2] was “apoptosis was inhibited”.
In the case of Pam3CSK4 [SBLP], the “apoptotic response of BMDMs” value [1, 5] is reported as “Little apoptosis”.
TNF-α was tested, and the “apoptosis of IKKβ-deficient macrophages” value [3] was “underwent apoptosis”.
lipopolysaccharide [LPS] was tested, and the “apoptotic response of BMDMs” value [1, 5] was “strong apoptotic response”, the “apoptosis on prolonged incubation” value ([1]; wt BMDMs, without p38 inhibition, prolonged incubation (days)) was “resulted in apoptosis” and the “apoptosis of IKKβ-deficient macrophages” value [3] was “underwent apoptosis”. For the same compound, the “PKR activation (autophosphorylation, eIF2α phosphorylation)” value (PKR) was “rapidly activated”.
With lipoteichoiec acid [LTA] the “apoptosis of IKKβ-deficient macrophages” value [3] was “underwent apoptosis”.
For poly(IC), the “apoptotic response of BMDMs” value ([1]; without p38 inhibition, 18 hrs) was “weak apoptotic response”, the “apoptosis after transfection versus simple addition to culture medium” value ([1]; poly(IC) transfection, LPS added 6 hrs later, 18 hrs) was “higher level of apoptosis” and the “sensitization of BMDMs to LPS-induced apoptosis” value ([1]; with LPS, without SB202190) was “renders BMDMs susceptible to LPS-induced apoptosis”. For the same compound, the “apoptosis of IKKβ-deficient macrophages” value [3] was “more susceptible”, the “PKR activity after transfection versus simple addition to culture medium” value (PKR; poly(IC) introduced by transfection (lipofectamine)) was “higher levels of PKR activity” and the “PKR activation (autophosphorylation, eIF2α phosphorylation)” value (PKR) was “rapidly activated”. The “accumulation of A1/Bfl1” value (A1/Bfl1) was “inhibited the accumulation”, the “effect on apoptosis in response to live S. typhimurium or Y. pseudotuberculosis” value [4] was “potentiated apoptosis” and the “enhancement of bacterial load, apoptosis or mortality” value (S. typhimurium; PKR−/− mice, poly(IC) pretreatment) was “little enhancement”. For the same compound, the “number of apoptotic cells in the red pulp of the spleens” value (S. typhimurium; S. typhimurium infected wt mice, poly(IC) pretreatment) was “increased the number of apoptotic cells”, the “increase in number of live bacteria recovered from the spleen” value (S. typhimurium; wt mice, 200-300 μg poly(IC) i.p. before S. typhimurium, 24 hrs) was 3.5 fold and the “mortality caused by S. typhimurium infection” value (S. typhimurium; wt mice, poly(IC) pretreatment) was “increased the mortality”.

Reference: US7776527B2, “Methods and compositions for reducing microbial induced apoptosis” (The Regents of the University of California, priority 2003, dated 2010)
